EC50 data for two molecules are collected here from ChEMBL document CHEMBL1121396, “10,10-Difluoro-13-dehydroprostacyclin: a chemically and metabolically stabilized potent prostacyclin” (J Med Chem, 1980).

Structures are written as SMILES. pEC50: −log10 of the molar value.

The nature of test [1]: Tested for effect to cause relaxation of […] mesenteric artery previously contracted by PGF2-alpha. Type of test: functional.
Test [2] in a line: Tested for effect to cause relaxation of bovine coronary artery. Type of test: functional, tissue-based, Bos taurus.

Take `CCCCC[C@H](O)C#CC1C2C/C(=C\CCCC(=O)O)OC2C(F)(F)C1O` (some centres undefined): the values for the negative logarithm of the EC50 (pEC50) in test [1] and in test [2] were 8.64 and 8.07, respectively.
For `CCCCC[C@H](O)/C=C/[C@@H]1[C@H]2C/C(=C/CCCC(=O)O)O[C@H]2C[C@H]1O` [EPOPROSTENOL], the negative-log EC50 (pEC50) (usually −log10 of the EC50, conventionally taken in molar units) in test [1] was 8.48; in test [2], 7.55.
